Like-named read-outs stand apart in the source and are kept apart here.
What was measured:
[1] = molecular target: T1, rat CB2 (Rattus norvegicus, UniProt Q9QZN9); test: rat CB2 cyclase functional assay (HitHunter cAMP, HEK cells); assay type: cell-based; parameters: expressed in transfected cells; host or cells: HEK; conditions: forskolin 18 μM
T1 sequence (Q9QZN9 1-360): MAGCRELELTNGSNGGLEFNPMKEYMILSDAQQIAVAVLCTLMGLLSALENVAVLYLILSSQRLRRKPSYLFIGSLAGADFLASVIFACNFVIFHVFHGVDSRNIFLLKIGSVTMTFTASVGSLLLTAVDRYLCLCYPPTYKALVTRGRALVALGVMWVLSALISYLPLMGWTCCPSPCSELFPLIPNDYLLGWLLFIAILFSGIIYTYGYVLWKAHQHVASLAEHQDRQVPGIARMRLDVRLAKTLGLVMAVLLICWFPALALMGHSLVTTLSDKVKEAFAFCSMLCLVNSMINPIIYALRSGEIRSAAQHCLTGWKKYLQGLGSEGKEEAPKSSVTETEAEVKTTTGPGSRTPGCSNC

[2] = molecular target: T2, human CB2 receptors (Homo sapiens, UniProt P34972); test: human CB2 radioligand binding assay ([3H]CP-55,940 competition)
T2 construct: expressed in transfected cells; host or cells: HEK293

[3] = molecular target: T1, rat CB2; test: rat CB2 radioligand binding assay ([3H]CP-55,940 competition); parameters: expressed in transfected cells; host or cells: HEK293
[4] = HEK293 membranes, 0.5 nM [3H]CP-55,940, read-out: human CB2 (Ki)
[5] = HEK293 membranes, 0.5 nM [3H]CP-55,940, read-out: rat CB2 (Ki)

T2 sequence (P34972 whole entry): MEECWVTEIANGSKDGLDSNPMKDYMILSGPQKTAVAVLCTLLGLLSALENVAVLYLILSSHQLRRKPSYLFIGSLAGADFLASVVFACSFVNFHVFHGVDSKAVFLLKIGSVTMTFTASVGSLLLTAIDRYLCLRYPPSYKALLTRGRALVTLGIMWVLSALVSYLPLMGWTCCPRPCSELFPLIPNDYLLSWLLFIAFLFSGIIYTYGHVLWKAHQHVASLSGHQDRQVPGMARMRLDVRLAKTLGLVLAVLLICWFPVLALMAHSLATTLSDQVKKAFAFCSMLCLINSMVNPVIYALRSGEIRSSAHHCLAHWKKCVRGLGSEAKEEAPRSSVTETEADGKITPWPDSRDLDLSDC

Row | SMILES | EC50 [1] | Ki [2] | Ki [2, 4] | Ki [3, 5] | Ki [3]
1 | CCCCc1cn(C(C)(C)C)s/c1=N\C(=O)[C@]1(C)CC[C@H](C(=O)NCC)C1(C)C [Example 201, (1R,3S)—N^1-[(5Z)-4-butyl-2-tert-butylisothiazol-5(2H)-ylidene]-N^3-ethyl-1,2,2-trimethylcyclopentane-1,3-dicarboxamide] | 3.5 nM | 180 nM | – | – | –
2 | CCCCc1cn(C(C)(C)C)s/c1=N\C(=O)[C@]1(C)CC[C@H](C(=O)NCc2cccnc2)C1(C)C [Example 235, (1R,3S)—N^1-[(5Z)-4-butyl-2-tert-butylisothiazol-5(2H)-ylidene]-1,2,2-trimethyl-N^3-(pyridin-3-ylmethyl)cyclopentane-1,3-dicarboxamide] | – | – | 320 nM | 258 nM | –
3 | C#CCNC(=O)[C@H]1CC[C@@](C)(C(=O)/N=c2\sn(C(C)(C)C)cc2CCCC)C1(C)C [Example 237, (1R,3S)—N^1-[(5Z)-4-butyl-2-tert-butylisothiazol-5(2H)-ylidene]-1,2,2-trimethyl-N^3-prop-2-ynylcyclopentane-1,3-dicarboxamide] | – | 23 nM | – | – | 18 nM
4 | CCCCc1cn(C(C)(C)C)s/c1=N\C(=O)[C@]1(C)CC[C@H](C(=O)NCC(F)(F)F)C1(C)C [Example 238, (1R,3S)—N^1-[(5Z)-4-butyl-2-tert-butylisothiazol-5(2H)-ylidene]-1,2,2-trimethyl-N^3-(2,2,2-trifluoroethyl)cyclopentane-1,3-dicarboxamide] | – | 23 nM | – | – | 14 nM
5 | C#CCNC(=O)[C@@H]1CC[C@](C)(C(=O)/N=c2\sn(C(C)(C)C)cc2CCCC)C1(C)C [Example 239, (1S,3R)—N^1-[(5Z)-4-butyl-2-tert-butylisothiazol-5(2H)-ylidene]-1,2,2-trimethyl-N^3-prop-2-ynylcyclopentane-1,3-dicarboxamide] | – | 72 nM | – | – | 70 nM
6 | CCCCc1cn(C(C)(C)C)s/c1=N\C(=O)[C@]1(C)CC[C@H](C(=O)N(C)OC)C1(C)C [Example 241, (1R,3S)—N^1-[(5Z)-4-butyl-2-tert-butylisothiazol-5(2H)-ylidene]-N^3-methoxy-N^3,1,2,2-tetramethylcyclopentane-1,3-dicarboxamide] | – | 20 nM | – | – | 24 nM
7 | CCCCc1cn(C(C)(C)C)s/c1=N\C(=O)[C@]1(C)CC[C@H](C2=NCCCO2)C1(C)C [Example 243, (1R,3S)—N-[(5Z)-4-butyl-2-tert-butylisothiazol-5(2H)-ylidene]-3-(5,6-dihydro-4H-1,3-oxazin-2-yl)-1,2,2-trimethylcyclopentanecarboxamide] | – | 41 nM | – | – | 14 nM
8 | CCCCc1cn(C(C)(C)C)s/c1=N\C(=O)[C@]1(C)CC[C@H](NC(=O)N2CCCC2)C1(C)C [Example 244, N-[(1S,3R)-3-({[(5Z)-4-butyl-2-tert-butylisothiazol-5(2H)-ylidene]amino}carbonyl)-2,2,3-trimethylcyclopentyl]pyrrolidine-1-carboxamide] | – | 42 nM | – | 150 nM | –
9 | CCCCc1cn(C(C)(C)C)s/c1=N\C(=O)[C@@H]1CC[C@](C)(NC(N)=O)C1(C)C [Example 246, (1R,3S)-3-[(aminocarbonyl)amino]-N-[(5Z)-4-butyl-2-tert-butylisothiazol-5(2H)-ylidene]-2,2,3-trimethylcyclopentanecarboxamide] | – | – | 150 nM | – | 38 nM
10 | CCCCc1cn(C(C)(C)C)s/c1=N\C(=O)[C@@H]1CC[C@](C)(NC(=O)NC)C1(C)C [Example 247, (1R,3S)—N-[(5Z)-4-butyl-2-tert-butylisothiazol-5(2H)-ylidene]-2,2,3-trimethyl-3-{[(methylamino)carbonyl]amino}cyclopentanecarboxamide] | – | 41 nM | – | – | 40 nM
11 | CCCCc1cn(C(C)(C)C)s/c1=N\C(=O)[C@]1(C)CC[C@H](C(=O)NN2CCCC2)C1(C)C [Example 249, (1R,3S)—N^1-[(5Z)-4-butyl-2-tert-butylisothiazol-5(2H)-ylidene]-1,2,2-trimethyl-N^3-pyrrolidin-1-ylcyclopentane-1,3-dicarboxamide] | – | – | 110 nM | 325 nM | –
12 | CCCCc1cn(C(C)(C)C)s/c1=N\C(=O)[C@]1(C)CC[C@H](NC(=O)N2CCOCC2)C1(C)C [Example 250, N-[(1S,3R)-3-({[(5Z)-4-butyl-2-tert-butylisothiazol-5(2H)-ylidene]amino}carbonyl)-2,2,3-trimethylcyclopentyl]morpholine-4-carboxamide] | – | 48 nM | – | – | 75 nM
13 | CCCCc1cn(C(C)(C)C)s/c1=N\C(=O)[C@]1(C)CC[C@H](NC(=O)c2ccccc2)C1(C)C [Example 251, N-[(1S,3R)-3-({[(5Z)-4-butyl-2-tert-butylisothiazol-5(2H)-ylidene]amino}carbonyl)-2,2,3-trimethylcyclopentyl]benzamide] | – | 60 nM | – | – | 60 nM
14 | CCCCc1cn(C(C)(C)C)s/c1=N\C(=O)[C@]1(C)CC[C@H](NC(=O)NC)C1(C)C [Example 252, (1R,3S)—N-[(5Z)-4-butyl-2-tert-butylisothiazol-5(2H)-ylidene]-1,2,2-trimethyl-3-{[(methylamino)carbonyl]amino}cyclopentanecarboxamide] | – | 6.2 nM | – | – | 18.8 nM
15 | CCCCc1cn(C(C)(C)C)s/c1=N\C(=O)[C@@]1(C)CC[C@@H](NC(N)=O)C1(C)C [Example 253, (1S,3R)-3-[(aminocarbonyl)amino]-N-[(5Z)-4-butyl-2-tert-butylisothiazol-5(2H)-ylidene]-1,2,2-trimethylcyclopentanecarboxamide] | – | 160 nM | – | – | 45 nM
16 | CCCCc1cn(C(C)(C)C)s/c1=N\C(=O)[C@@]1(C)CC[C@@H](NC(=O)NC)C1(C)C [Example 254, (1S,3R)—N-[(5Z)-4-butyl-2-tert-butylisothiazol-5(2H)-ylidene]-1,2,2-trimethyl-3-{[(methylamino)carbonyl]amino}cyclopentanecarboxamide] | – | 84 nM | – | 107 nM | –
17 | CCCCc1cn(C(C)(C)C)s/c1=N\C(=O)[C@@]1(C)CC[C@@H](NC(=O)c2ccccc2)C1(C)C [Example 255, N-[(1R,3S)-3-({[(5Z)-4-butyl-2-tert-butylisothiazol-5(2H)-ylidene]amino}carbonyl)-2,2,3-trimethylcyclopentyl]benzamide] | – | 25 nM | – | – | 69 nM
18 | CCCCc1cn(C(C)(C)C)s/c1=N\C(=O)[C@]1(C)CC[C@H](NC(C)=O)C1(C)C [Example 256, (1R,3S)-3-(acetylamino)-N-[(5Z)-4-butyl-2-tert-butylisothiazol-5(2H)-ylidene]-1,2,2-trimethylcyclopentanecarboxamide] | – | 19 nM | – | – | 28 nM
19 | CCCCc1cn(C(C)(C)C)s/c1=N\C(=O)[C@]1(C)CC[C@H](NC(=O)N2CC(O)C2)C1(C)C [Example 260, N-[(1S,3R)-3-({[(5Z)-4-butyl-2-tert-butylisothiazol-5(2H)-ylidene]amino}carbonyl)-2,2,3-trimethylcyclopentyl]-3-hydroxyazetidine-1-carboxamide] | – | – | 190 nM | 361 nM | –
20 | CCCCc1cn(C(C)(C)C)s/c1=N\C(=O)[C@]1(C)CC[C@H](NC(=O)N2CC(F)(F)C2)C1(C)C [Example 261, N-[(1S,3R)-3-({[(5Z)-4-butyl-2-tert-butylisothiazol-5(2H)-ylidene]amino}carbonyl)-2,2,3-trimethylcyclopentyl]-3,3-difluoroazetidine-1-carboxamide] | – | 54 nM | – | – | 44 nM
21 | CCCCc1cn(C(C)(C)C)s/c1=N\C(=O)c1cc(C(F)(F)F)ccc1OCC(C)(C)O [Example 262, N-[(5Z)-4-butyl-2-tert-butylisothiazol-5(2H)-ylidene]-2-(2-hydroxy-2-methylpropoxy)-5-(trifluoromethyl)benzamide] | – | 6 nM | – | – | 4.4 nM
22 | CCCCc1cn(C(C)(C)C)s/c1=N\C(=O)[C@]1(C)CC[C@H](NC(=O)N2CCC2)C1(C)C [Example 263, N-[(1S,3R)-3-({[(5Z)-4-butyl-2-tert-butylisothiazol-5(2H)-ylidene]amino}carbonyl)-2,2,3-trimethylcyclopentyl]azetidine-1-carboxamide] | – | 33 nM | – | – | 77 nM
23 | CCCCc1cn(C(C)(C)C)s/c1=N\C(=O)[C@]1(C)CC[C@H](NC(=O)N(C)c2ccccc2)C1(C)C [Example 264, (1R,3S)—N-[(5Z)-4-butyl-2-tert-butylisothiazol-5(2H)-ylidene]-1,2,2-trimethyl-3-({[methyl(phenyl)amino]carbonyl}amino)cyclopentanecarboxamide] | – | 11 nM | – | – | 33 nM
24 | CCCCc1cn(C(C)(C)C)s/c1=N\C(=O)C12CC3CC(C1)CC(C(=O)OC)(C3)C2 [Example 265, Methyl 3-({[(5Z)-4-butyl-2-tert-butylisothiazol-5(2H)-ylidene]amino}carbonyl)adamantane-1-carboxylate] | – | 0.32 nM | – | – | 0.07 nM
25 | CCCCc1cn(C(C)(C)C)s/c1=N\C(=O)c1cc(C(F)(F)F)ccc1ONC(C)(C)C [Example 267, 2-[(tert-butylamino)oxy]-N-[(5Z)-4-butyl-2-tert-butylisothiazol-5(2H)-ylidene]-5-(trifluoromethyl)benzamide] | – | 19 nM | – | – | 1 nM

From patent US8501794B2, “Compounds as cannabinoid receptor ligands” (priority 2007, dated 2013)
